Tests used:
[1] = system: Hepatocyte growth factor receptor (Homo sapiens), P08581 [M1250T]; details: Compound concentration 1000.0 nM
[2] = molecular target: Alpha-1B adrenergic receptor (Homo sapiens) (UniProt P35368); details: Compound concentration 10.0 uM
[3] = molecular target: Cyclin-dependent kinase 3 (Homo sapiens) (UniProt Q00526); details: Compound concentration 1000.0 nM
[4] = molecular target: Serine/threonine-protein kinase 33 (Homo sapiens) (UniProt Q9BYT3); details: Compound concentration 1000.0 nM
[5] = molecular target: Phosphatidylinositol 3-kinase C2 domain-containing subunit gamma (Homo sapiens) (UniProt O75747); details: Compound concentration 1000.0 nM
[6] = molecular target: Serine/threonine-protein kinase ULK2 (Homo sapiens) (UniProt Q8IYT8); details: Compound concentration 1000.0 nM
[7] = molecular target: Serine/threonine-protein kinase WNK4 (Homo sapiens) (UniProt Q96J92); details: Compound concentration 1000.0 nM
[8] = molecular target: Cyclin-dependent kinase 4 (Homo sapiens) (UniProt P11802); details: Compound concentration 1000.0 nM
[9] = molecular target: TGF-beta receptor type-1 (Homo sapiens) (UniProt P36897); details: Compound concentration 1000.0 nM
[10] = molecular target: Ribosomal protein S6 kinase alpha-3 (Homo sapiens) (UniProt P51812); details: Compound concentration 1000.0 nM
[11] = molecular target: Ephrin type-A receptor 4 (Homo sapiens) (UniProt P54764); details: Compound concentration 1000.0 nM
[12] = molecular target: Serine/threonine-protein kinase D1 (Homo sapiens) (UniProt Q15139); details: Compound concentration 1000.0 nM
[13] = molecular target: Histamine H2 receptor (Homo sapiens) (UniProt P25021); details: Compound concentration 10.0 uM
[14] = molecular target: Dual specificity mitogen-activated protein kinase kinase 6 (Homo sapiens) (UniProt P52564); details: Compound concentration 1000.0 nM
[15] = molecular target: Serine/threonine-protein kinase TAO2 (Homo sapiens) (UniProt Q9UL54); details: Compound concentration 1000.0 nM
[16] = molecular target: Mitogen-activated protein kinase 3 (Homo sapiens) (UniProt P27361); details: Compound concentration 1000.0 nM
[17] = molecular target: Macrophage colony-stimulating factor 1 receptor (Homo sapiens) (UniProt P07333); details: Compound concentration 1000.0 nM
[18] = system: Mast/stem cell growth factor receptor Kit (Homo sapiens), P10721 [V559D,T670I]; details: Compound concentration 1000.0 nM
[19] = molecular target: Tyrosine-protein kinase Lck (Homo sapiens) (UniProt P06239); details: Compound concentration 1000.0 nM
[20] = molecular target: Serine/threonine-protein kinase DCLK2 (Homo sapiens) (UniProt Q8N568); details: Compound concentration 1000.0 nM
[21] = molecular target: Phosphatidylinositol 4-phosphate 5-kinase type-1 gamma (Homo sapiens) (UniProt O60331); details: Compound concentration 1000.0 nM
[22] = system: Phosphatidylinositol 4,5-bisphosphate 3-kinase catalytic subunit alpha isoform (Homo sapiens), P42336 [Q546K]; details: Compound concentration 1000.0 nM
[23] = molecular target: Serine/threonine-protein kinase 32A (Homo sapiens) (UniProt Q8WU08); details: Compound concentration 1000.0 nM
[24] = molecular target: BMP-2-inducible protein kinase (Homo sapiens) (UniProt Q9NSY1); details: Compound concentration 1000.0 nM
[25] = molecular target: Interleukin-1 receptor-associated kinase 3 (Homo sapiens) (UniProt Q9Y616); details: Compound concentration 1000.0 nM
[26] = molecular target: Serine/threonine-protein kinase Nek1 (Homo sapiens) (UniProt Q96PY6); details: Compound concentration 1000.0 nM
[27] = molecular target: Protein kinase C delta type (Homo sapiens) (UniProt Q05655); details: Compound concentration 1000.0 nM
[28] = molecular target: Tyrosine-protein kinase Fer (Homo sapiens) (UniProt P16591); details: Compound concentration 1000.0 nM
[29] = molecular target: Serine/threonine-protein kinase 38-like (Homo sapiens) (UniProt Q9Y2H1); details: Compound concentration 1000.0 nM
[30] = molecular target: Dual specificity protein kinase CLK3 (Homo sapiens) (UniProt P49761); details: Compound concentration 1000.0 nM
[31] = molecular target: 5-hydroxytryptamine receptor 3A (Homo sapiens) (UniProt P46098); details: Compound concentration 10.0 uM
[32] = molecular target: cGMP-dependent protein kinase 2 (Homo sapiens) (UniProt Q13237); details: Compound concentration 1000.0 nM
[33] = molecular target: Mitogen-activated protein kinase kinase kinase 12 (Homo sapiens) (UniProt Q12852); details: Compound concentration 1000.0 nM
[34] = molecular target: Cyclin-dependent kinase 13 (Homo sapiens) (UniProt Q14004); details: Compound concentration 1000.0 nM
[35] = molecular target: Dual specificity testis-specific protein kinase 1 (Homo sapiens) (UniProt Q15569); details: Compound concentration 1000.0 nM
[36] = molecular target: Tyrosine-protein kinase Fes/Fps (Homo sapiens) (UniProt P07332); details: Compound concentration 1000.0 nM
[37] = molecular target: D(2) dopamine receptor (Homo sapiens) (UniProt P14416); details: Compound concentration 10.0 uM
[38] = molecular target: Mitogen-activated protein kinase kinase kinase 9 (Homo sapiens) (UniProt P80192); details: Compound concentration 1000.0 nM
[39] = molecular target: Interleukin-1 receptor-associated kinase 4 (Homo sapiens) (UniProt Q9NWZ3); details: Compound concentration 1000.0 nM
[40] = molecular target: Tyrosine-protein kinase BTK (Homo sapiens) (UniProt Q06187); details: Compound concentration 1000.0 nM
[41] = molecular target: Mitogen-activated protein kinase kinase kinase 3 (Homo sapiens) (UniProt Q99759); details: Compound concentration 1000.0 nM
[42] = molecular target: Serine/threonine-protein kinase RIO2 (Homo sapiens) (UniProt Q9BVS4); details: Compound concentration 1000.0 nM
[43] = molecular target: Focal adhesion kinase 1 (Homo sapiens) (UniProt Q05397); details: Compound concentration 1000.0 nM
[44] = molecular target: Mitogen-activated protein kinase 9 (Homo sapiens) (UniProt P45984); details: Compound concentration 1000.0 nM
[45] = molecular target: Tyrosine-protein kinase JAK1 (Homo sapiens) (UniProt P23458); details: Compound concentration 1000.0 nM

Sequence of Mitogen-activated protein kinase kinase kinase 9 (Homo sapiens) (P80192 whole entry, looked up): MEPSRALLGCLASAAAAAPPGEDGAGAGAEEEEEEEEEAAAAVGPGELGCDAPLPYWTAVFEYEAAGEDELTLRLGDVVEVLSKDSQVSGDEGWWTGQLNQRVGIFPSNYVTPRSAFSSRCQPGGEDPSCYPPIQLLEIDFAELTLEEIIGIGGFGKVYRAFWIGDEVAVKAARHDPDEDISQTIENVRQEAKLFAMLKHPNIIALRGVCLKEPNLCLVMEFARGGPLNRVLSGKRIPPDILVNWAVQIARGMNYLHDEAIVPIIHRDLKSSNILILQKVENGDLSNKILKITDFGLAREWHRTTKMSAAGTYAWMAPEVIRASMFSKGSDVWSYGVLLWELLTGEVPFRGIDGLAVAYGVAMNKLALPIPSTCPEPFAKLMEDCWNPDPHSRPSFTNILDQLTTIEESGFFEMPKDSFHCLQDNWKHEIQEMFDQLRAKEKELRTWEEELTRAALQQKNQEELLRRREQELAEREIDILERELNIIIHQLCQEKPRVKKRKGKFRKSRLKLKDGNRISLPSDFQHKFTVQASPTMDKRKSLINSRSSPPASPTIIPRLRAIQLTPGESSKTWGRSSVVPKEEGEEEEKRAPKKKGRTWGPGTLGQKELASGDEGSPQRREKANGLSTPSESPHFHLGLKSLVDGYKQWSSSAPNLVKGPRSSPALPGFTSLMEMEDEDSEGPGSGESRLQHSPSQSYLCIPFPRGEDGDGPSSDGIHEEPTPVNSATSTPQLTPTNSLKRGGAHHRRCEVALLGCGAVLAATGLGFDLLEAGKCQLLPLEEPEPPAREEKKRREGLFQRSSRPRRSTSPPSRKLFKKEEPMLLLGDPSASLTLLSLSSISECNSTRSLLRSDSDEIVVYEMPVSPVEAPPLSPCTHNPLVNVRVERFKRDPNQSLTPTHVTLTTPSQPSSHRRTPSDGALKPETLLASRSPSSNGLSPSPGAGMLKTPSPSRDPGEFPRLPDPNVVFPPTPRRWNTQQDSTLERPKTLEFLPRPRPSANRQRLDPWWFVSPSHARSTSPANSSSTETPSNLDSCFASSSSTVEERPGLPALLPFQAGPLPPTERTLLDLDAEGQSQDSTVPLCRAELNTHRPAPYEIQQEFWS
Sequence of Serine/threonine-protein kinase TAO2 (Homo sapiens) (Q9UL54 whole entry): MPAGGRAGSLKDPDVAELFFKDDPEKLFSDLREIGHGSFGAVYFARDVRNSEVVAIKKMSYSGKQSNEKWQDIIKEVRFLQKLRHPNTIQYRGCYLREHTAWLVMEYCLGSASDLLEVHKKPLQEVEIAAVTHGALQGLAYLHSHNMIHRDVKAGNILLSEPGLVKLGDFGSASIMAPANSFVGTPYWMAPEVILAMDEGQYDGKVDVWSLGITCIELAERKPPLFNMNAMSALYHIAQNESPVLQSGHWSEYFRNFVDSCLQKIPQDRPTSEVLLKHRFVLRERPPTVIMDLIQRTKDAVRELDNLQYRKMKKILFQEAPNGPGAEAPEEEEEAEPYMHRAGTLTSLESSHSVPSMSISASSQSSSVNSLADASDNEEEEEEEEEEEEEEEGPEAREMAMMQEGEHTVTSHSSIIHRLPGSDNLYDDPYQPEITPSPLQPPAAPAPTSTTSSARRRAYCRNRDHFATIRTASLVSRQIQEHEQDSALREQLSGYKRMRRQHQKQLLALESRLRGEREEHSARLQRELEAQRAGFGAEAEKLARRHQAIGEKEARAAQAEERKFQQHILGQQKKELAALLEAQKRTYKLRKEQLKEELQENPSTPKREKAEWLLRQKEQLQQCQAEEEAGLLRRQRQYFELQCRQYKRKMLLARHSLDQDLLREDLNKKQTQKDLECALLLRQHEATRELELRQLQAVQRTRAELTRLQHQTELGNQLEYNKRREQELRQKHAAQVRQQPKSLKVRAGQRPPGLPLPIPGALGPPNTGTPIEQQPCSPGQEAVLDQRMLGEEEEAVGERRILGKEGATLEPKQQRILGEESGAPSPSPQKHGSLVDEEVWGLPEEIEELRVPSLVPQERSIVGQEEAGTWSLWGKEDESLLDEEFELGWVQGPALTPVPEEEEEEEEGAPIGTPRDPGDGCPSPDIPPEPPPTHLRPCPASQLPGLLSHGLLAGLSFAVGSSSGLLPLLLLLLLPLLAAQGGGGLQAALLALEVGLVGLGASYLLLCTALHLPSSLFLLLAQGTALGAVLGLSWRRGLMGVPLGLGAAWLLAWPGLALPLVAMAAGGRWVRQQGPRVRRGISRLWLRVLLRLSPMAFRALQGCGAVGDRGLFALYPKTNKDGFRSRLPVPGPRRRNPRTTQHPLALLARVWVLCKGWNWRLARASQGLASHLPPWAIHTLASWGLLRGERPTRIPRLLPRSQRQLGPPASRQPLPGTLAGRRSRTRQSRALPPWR
Sequence of Serine/threonine-protein kinase WNK4 (Homo sapiens) (Q96J92 whole entry): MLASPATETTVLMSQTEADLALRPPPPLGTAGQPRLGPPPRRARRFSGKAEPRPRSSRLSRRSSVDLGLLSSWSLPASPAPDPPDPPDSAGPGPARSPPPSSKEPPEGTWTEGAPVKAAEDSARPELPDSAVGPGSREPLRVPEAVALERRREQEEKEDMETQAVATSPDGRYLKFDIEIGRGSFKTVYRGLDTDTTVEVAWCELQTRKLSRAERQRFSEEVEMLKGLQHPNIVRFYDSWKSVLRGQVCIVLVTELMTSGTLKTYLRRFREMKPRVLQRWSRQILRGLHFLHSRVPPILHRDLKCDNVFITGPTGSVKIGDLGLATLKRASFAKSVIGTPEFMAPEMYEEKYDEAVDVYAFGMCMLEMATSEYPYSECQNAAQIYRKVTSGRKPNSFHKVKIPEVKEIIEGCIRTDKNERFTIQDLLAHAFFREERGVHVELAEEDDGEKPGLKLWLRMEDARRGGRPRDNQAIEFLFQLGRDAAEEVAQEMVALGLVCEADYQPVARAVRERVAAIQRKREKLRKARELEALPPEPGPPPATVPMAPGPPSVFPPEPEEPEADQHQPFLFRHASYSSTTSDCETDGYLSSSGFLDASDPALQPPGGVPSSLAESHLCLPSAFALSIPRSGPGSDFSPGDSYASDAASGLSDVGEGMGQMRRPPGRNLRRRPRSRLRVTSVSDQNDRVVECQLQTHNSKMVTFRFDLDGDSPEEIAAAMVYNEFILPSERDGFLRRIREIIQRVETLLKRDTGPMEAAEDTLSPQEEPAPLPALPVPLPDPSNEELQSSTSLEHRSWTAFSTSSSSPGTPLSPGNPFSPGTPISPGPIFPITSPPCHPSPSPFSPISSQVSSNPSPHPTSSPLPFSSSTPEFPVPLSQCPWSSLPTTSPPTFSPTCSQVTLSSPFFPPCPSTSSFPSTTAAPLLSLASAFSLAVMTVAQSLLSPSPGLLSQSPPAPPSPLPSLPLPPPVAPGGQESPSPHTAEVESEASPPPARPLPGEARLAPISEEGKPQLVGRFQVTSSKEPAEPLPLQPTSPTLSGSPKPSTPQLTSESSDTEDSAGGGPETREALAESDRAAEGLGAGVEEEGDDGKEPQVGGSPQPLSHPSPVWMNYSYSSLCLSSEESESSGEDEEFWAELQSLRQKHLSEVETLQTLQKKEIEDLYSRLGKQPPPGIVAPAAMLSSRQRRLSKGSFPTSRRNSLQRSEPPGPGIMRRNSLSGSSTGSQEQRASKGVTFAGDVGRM
Sequence of BMP-2-inducible protein kinase (Homo sapiens) (Q9NSY1 whole entry, looked up): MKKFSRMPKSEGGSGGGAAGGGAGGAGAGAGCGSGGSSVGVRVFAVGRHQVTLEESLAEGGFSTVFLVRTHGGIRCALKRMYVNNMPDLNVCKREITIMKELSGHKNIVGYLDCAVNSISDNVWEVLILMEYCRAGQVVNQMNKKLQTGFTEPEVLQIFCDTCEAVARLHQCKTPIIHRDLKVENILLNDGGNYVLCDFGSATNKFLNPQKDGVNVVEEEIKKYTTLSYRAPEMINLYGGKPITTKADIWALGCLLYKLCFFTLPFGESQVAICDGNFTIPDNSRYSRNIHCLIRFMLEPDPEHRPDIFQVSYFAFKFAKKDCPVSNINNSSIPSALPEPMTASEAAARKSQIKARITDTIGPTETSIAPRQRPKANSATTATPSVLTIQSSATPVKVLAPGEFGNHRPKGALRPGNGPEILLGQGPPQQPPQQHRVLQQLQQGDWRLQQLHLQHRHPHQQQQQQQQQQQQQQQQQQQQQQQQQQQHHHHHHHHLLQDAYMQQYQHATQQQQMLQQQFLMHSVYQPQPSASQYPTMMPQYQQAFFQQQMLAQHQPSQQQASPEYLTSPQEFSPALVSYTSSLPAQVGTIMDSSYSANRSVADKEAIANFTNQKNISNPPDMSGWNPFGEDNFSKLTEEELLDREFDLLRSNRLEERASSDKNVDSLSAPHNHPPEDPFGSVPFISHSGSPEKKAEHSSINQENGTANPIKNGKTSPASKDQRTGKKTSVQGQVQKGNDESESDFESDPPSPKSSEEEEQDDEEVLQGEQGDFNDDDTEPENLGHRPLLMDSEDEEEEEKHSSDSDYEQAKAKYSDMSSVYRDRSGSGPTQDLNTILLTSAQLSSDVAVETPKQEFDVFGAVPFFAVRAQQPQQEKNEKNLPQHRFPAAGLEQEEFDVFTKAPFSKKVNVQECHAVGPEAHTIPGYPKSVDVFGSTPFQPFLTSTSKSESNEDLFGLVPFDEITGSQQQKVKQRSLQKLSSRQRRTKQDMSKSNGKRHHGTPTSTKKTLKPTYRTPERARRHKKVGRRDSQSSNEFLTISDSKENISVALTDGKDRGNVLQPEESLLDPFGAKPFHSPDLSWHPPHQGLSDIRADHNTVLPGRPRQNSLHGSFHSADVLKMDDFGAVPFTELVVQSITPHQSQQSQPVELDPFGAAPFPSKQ
Sequence of Histamine H2 receptor (Homo sapiens) (P25021 whole entry): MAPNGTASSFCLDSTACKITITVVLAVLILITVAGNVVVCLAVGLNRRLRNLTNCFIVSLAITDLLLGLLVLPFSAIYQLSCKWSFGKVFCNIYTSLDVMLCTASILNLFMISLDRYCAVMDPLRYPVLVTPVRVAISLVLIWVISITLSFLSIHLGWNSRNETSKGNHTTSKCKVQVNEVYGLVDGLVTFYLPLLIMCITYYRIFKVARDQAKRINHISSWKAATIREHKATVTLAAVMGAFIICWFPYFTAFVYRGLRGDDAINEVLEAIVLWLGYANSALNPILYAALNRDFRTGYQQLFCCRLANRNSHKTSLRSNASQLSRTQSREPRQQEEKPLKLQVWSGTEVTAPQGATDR

With NS(=O)(=O)c1cc(NC(=O)C2(c3ccccc3Cl)CC2)ccc1Oc1cccc(Cl)c1 [BAY-207] the residual activity [1] was 68%, the inhibition [2] was -8.97% and the residual activity [3] was 90%. For the same molecule, the residual activity [4] was 100%, the residual activity [5] was 100% and the residual activity [6] was 100%. It also gave a residual activity [7] of 81%, a residual activity [8] of 100% and a residual activity [9] of 82%. The residual activity [10] was 92%, the residual activity [11] was 100% and the residual activity [12] was 65%. It also gave an inhibition [13] of 11.5%, a residual activity [14] of 96% and a residual activity [15] of 82%. The residual activity [16] was 76%, the residual activity [17] was 85% and the residual activity [18] was 85%. For the same molecule, the residual activity [19] was 80%, the residual activity [20] was 74% and the residual activity [21] was 48%. The residual activity [22] was 84%, the residual activity [23] was 90% and the residual activity [24] was 74%. It also gave a residual activity [25] of 75%, a residual activity [26] of 100% and a residual activity [27] of 89%. It also gave a residual activity [28] of 83%, a residual activity [29] of 81% and a residual activity [30] of 72%. For the same molecule, the inhibition [31] was 3.19%, the residual activity [32] was 100% and the residual activity [33] was 100%. It also gave a residual activity [34] of 100%, a residual activity [35] of 100% and a residual activity [36] of 64%. The inhibition [37] was -9.74%, the residual activity [38] was 67% and the residual activity [39] was 61%. For the same molecule, the residual activity [40] was 88%, the residual activity [41] was 100% and the residual activity [42] was 89%. For the same molecule, the residual activity [43] was 87%, the residual activity [44] was 100% and the residual activity [45] was 76%.
Molecule NS(=O)(=O)c1cc(NC(=O)Cc2ccccc2)ccc1Oc1cccc(Cl)c1 [BAY-1797] has a residual activity [1] of 99%, an inhibition [2] of -0.38% and a residual activity [3] of 92%. For the same molecule, the residual activity [4] was 100%, the residual activity [5] was 72% and the residual activity [6] was 52%. It also gave a residual activity [7] of 0%, a residual activity [8] of 88% and a residual activity [9] of 100%. It also gave a residual activity [10] of 72%, a residual activity [11] of 97% and a residual activity [12] of 96%. The inhibition [13] was -4.85%, the residual activity [14] was 99% and the residual activity [15] was 76%. It also gave a residual activity [16] of 94%, a residual activity [17] of 87% and a residual activity [18] of 83%. The residual activity [19] was 70%, the residual activity [20] was 99% and the residual activity [21] was 100%. It also gave a residual activity [22] of 92%, a residual activity [23] of 100% and a residual activity [24] of 94%. It also gave a residual activity [25] of 87%, a residual activity [26] of 93% and a residual activity [27] of 100%. It also gave a residual activity [28] of 73%, a residual activity [29] of 100% and a residual activity [30] of 83%. It also gave an inhibition [31] of 19.9%, a residual activity [32] of 86% and a residual activity [33] of 80%. It also gave a residual activity [34] of 92%, a residual activity [35] of 100% and a residual activity [36] of 92%. The inhibition [37] was -7.81%, the residual activity [38] was 100% and the residual activity [39] was 91%. The residual activity [40] was 76%, the residual activity [41] was 71% and the residual activity [42] was 100%. For the same molecule, the residual activity [43] was 96%, the residual activity [44] was 83% and the residual activity [45] was 87%.

Source: ChEMBL document CHEMBL4507265 (2021)
